The values that follow come from patent publication US4209612A, “Fortimicin factors KF and KG and process for production thereof” (Abbott Laboratories, priority 1977, dated 1980).

The test system of series [1] is Bacillus subtilis No. 10707. Description: Antibacterial activity of the preparate (units/mg), paper disc method. Type of series: cell-based. Here is the method: After the completion of fermentation, the culture liquor is adjusted to pH 2.5 with concentrated sulfuric acid and is stirred for 30 minutes. Thereafter, about 7 kg of a filter aid, Radiolite No. 600 (product of Showa Kagaku Kogyo Co., Ltd.) is added to the culture liquor and the microbial cells are removed by filtration. The filtrate is adjusted to pH 7.5 by the addition of 6 N sodium hydroxide. The resulting filtrate is passed through a column packed with about 20 L. of a cation exchange resin, Amberlite IRC-50 (ammonia form). The active principles are adsorbed on the resin. After the resin is washed with water, elution of the active principles is carried out with 1 N aqueous ammonia. The eluate is subjected to determination of activity by a paper disc method using an agar plate of Bacillus subtilis No. 10707. Fractions showing activity are combined and concentrated under reduced pressure to about 1 L. The concentrate is passed through a column packed with 500 ml of an anion exchange resin, Dowex 1×2 (OH form) and then about 2 L. of water is passed through the column. In this manner, impurities are removed and the active principles are eluted with water. The active fractions are combined and concentrated under reduced pressure to about 100 ml. The concentrate is then passed through a column packed with about 50 ml of active carbon powder. The active principles are adsorbed on the active carbon. The column is washed with water. The effluent and washings are discarded. Elution is then carried out with 0.2 N sulfuric acid. The eluate is subjected to determination of activity by a paper disc method using Bacillus subtilis No. 10707. The active fractions are combined and passed through a column of an anion exchange resin, Dowex 44 (OH form) and elution of the active principles is carried out with water. The active fractions are combined and concentrated to about 60 ml. The concentrate is then freeze-dried to obtain a crude powder of Fortimicin complex. The yield of the crude powder is about 40 g.
(§1) The powder is charged over about 500 ml of silica gel in a glass column to form a uniform, thin layer. The silica gel is previously suspended in a mixed solvent of chloroform, ethanol, concentrated aqueous ammonia and acetone (2:2:1:2 by volume), and packed in the glass column to form a tight, uniform layer. The column is then thoroughly washed with the same solvent. After the crude powder is charged, the solvent having the same composition as described above is poured gradually into the column from the top and thereafter elution is carried out continuously at a flow rate of 50 ml/hour. The eluate is recovered in 20 ml fractions and the activity of each of the fractions is determined by a paper disc method using Bacillus subtilis No. 10707. First, Fortimicin KF is eluted followed by Fortimicin A and Fortimicin D. The active fractions are subjected to thin layer chromatography. The fractions containing Fortimicin KF are collected and concentrated under reduced pressure to remove the solvent.
The residue is dissolved in a small amount of water and then the solution is freeze-dried to obtain about 2 g of a purified preparate of the free base of Fortimicin KF.
as §1, with “This powder” for “The powder”, “the” for “the crude”, “10707. […]” for “10707. First, Fortimicin KF is eluted followed by Fortimicin A and Fortimicin D. The active fractions are subjected to thin layer chromatography. The fractions containing Fortimicin KF are collected and concentrated under reduced pressure to remove the solvent.”

Series [2] is described as follows: Solubility of the free base. It counts as physicochemical. The following applies: for solubility in organic solvents / solubility in ethanol and acetone / solubility in methanol / solubility in water: free base; for solubility in organic solvents: chloroform, benzene, ethyl acetate, butyl acetate, ether, butanol, petroleum ether, n-hexane.
The subject of series [3] is Escherichia coli ATCC 26. Kind of series: Minimum inhibitory concentration, agar dilution method at pH 8.0. It counts as cell-based. The following applies: ATCC26. From the text: (§2) In the following Table 4, the antibacterial spectra of Fortimicin KF and Fortimicin KG against various microorganisms are set forth.
(§3) (Minimum Inhibitory Concentration, γ/ml measured by
(§4) agar dilution method at pH 8.0)
A general note: In agar dilution, organisms are placed on agar that contains the substance at set levels.

The test system of series [4] is Salmonella typhosa ATCC 9992. The description is as above. Type of series: cell-based. The conditions noted are these: Salmonella enterica.
Source text: as §2, §3, §4

Series [5] concerns Bacillus subtilis No. 10707. Described as above. It counts as cell-based.
Source text: as §2, §3, §4

For series [6], the system named is Klebsiella pneumoniae ATCC 10031. The series is described as above. It counts as cell-based. The following applies: ATCC10031.
Source text: as §2, §3, §4

Series [7] concerns Shigella sonnei ATCC 9290. The series is described as above. It counts as cell-based. The conditions noted are these: ATCC9290.
Source text: as §2, §3, §4

Series [8] deals with Proteus vulgaris ATCC 6897. The series is described as above. Type of series: cell-based. The following applies: ATCC6897.
Source text: as §2, §3, §4

Series [9] has as its system Staphylococcus aureus ATCC 6538P. The series is described as above. Type of series: cell-based. The following applies: ATCC6538P.
Source text: as §2, §3, §4

The subject of series [10] is Gram-positive and Gram-negative bacteria. Description: Antibacterial spectrum (overall). Type of series: cell-based. The conditions noted are these: in words.
Source text: as §2, §3, §4

Where [11] appears, read: Example 3, before cellulose column chromatography.
[12] abbreviates: Example 3, purified preparate of the free base after cellulose column chromatography.
[13] abbreviates: purified preparate of the free base, Examples 1 and 2 (1 mg of a pure preparate defined as 1000 units).

Values after ≈ are worked out from the molar mass of the structure shown. “Also recorded” adds a separate entry of the source.

On to `CNC1C(O)C(OC2OC(CN)=CCC2N)C(N)C(O)C1OC` (stereo not drawn) [Fortimicin KF], for which the activity in [1] (setting [11]) was 860 units/mg; in series [1] (setting [12]), 980 units/mg; in series [1] (Example 4) it was 985 units/mg; in series [1] (setting [13]), “about 970 units/mg”. For the same compound, the “solubility in organic solvents” value in series [2] is “insoluble”. In addition, in series [2], the “solubility in ethanol and acetone” value was “slightly soluble”. The solubility in methanol result in series [2] is recorded as “soluble”. Also, the solubility in water result in series [2] is recorded as “readily soluble; also recorded: very soluble”. Further, the “solubility in the ordinary organic solvents” value in [2] was “poorly soluble”. Also, the MIC (usually the least concentration at which growth counts as inhibited) in [3] is 4.2 µg/mL (≈ 12.6 µM); in series [4] it was 4.2 µg/mL (≈ 12.6 µM); in series [5], 4.2 µg/mL (≈ 12.6 µM); in series [6], 4.2 µg/mL (≈ 12.6 µM); in series [7] it was 8.4 µg/mL (≈ 25.3 µM); in [8] it was 4.2 µg/mL (≈ 12.6 µM). Moreover, the MIC in series [9] was 2.1 µg/mL (≈ 6.32 µM). For the same compound, the antibacterial activity result in series [10] is “strong antibacterial activity against a broad range of Gram-positive and Gram-negative bacteria”; in [10] (listed as KF), “broad antibacterial activity”.
For the compound `CNC1C(O)C(OC2OC(C(C)N)=CCC2N)C(N)C(O)C1OC` (stereo not drawn) [Fortimicin KG], the activity in series [1] (setting [11]) is given as 860 units/mg; in [1] (setting [12]), 980 units/mg; in series [1] (Example 4), 985 units/mg; in series [1] (setting [13]), “about 970 units/mg”. The “solubility in organic solvents” value in series [2] is “insoluble”. Moreover, the “solubility in ethanol and acetone” value in series [2] was “slightly soluble”. Further, in series [2], the solubility in methanol result was “soluble”. In addition, in [2], the solubility in water result was “readily soluble; also recorded: very soluble”. Also, the “solubility in the ordinary organic solvents” value in [2] is on record as “poorly soluble”. In addition, the MIC stood at 4.5 µg/mL (≈ 13 µM) in series [3]; 2.3 µg/mL (≈ 6.64 µM) in [4]; 4.5 µg/mL (≈ 13 µM) in [5]; 4.5 µg/mL (≈ 13 µM) in series [6]; 9 µg/mL (≈ 26 µM) in series [7]; 4.5 µg/mL (≈ 13 µM) in series [8]. It took 1.1 µg/mL (≈ 3.18 µM) to inhibit growth in [9] (MIC). Moreover, the antibacterial activity entry is “strong antibacterial activity against a broad range of Gram-positive and Gram-negative bacteria” in series [10]; “broad antibacterial activity” in series [10] (listed as KG).
